Measurements as given in patent publication US8883801B2, “Substituted pyrazolo[1,5-a]pyrimidines as mTOR inhibitors” (Merck Sharp & Dohme Corp., priority 2010, dated 2014).
Like-named read-outs stand apart in the source and are kept apart here.

Assays:
[1] = biological target: human mTOR enzyme (Homo sapiens, UniProt P42345); test: HTRF mTOR enzyme (kinase) assay; format: biochemical; conditions: 5 μM ATP, 0.2 μM GST-S6K, read-out: hMTOR IC50
[2] = system: mTORC2 activity: phosphorylated AKT Ser473 (pAKT S473) in PC3 cells; test: mTOR target engagement assay, immunofluorescent cell-based, mTORC2 readout; conditions: Homo sapiens, PC-3, 1.5 h, 90 min treatment
Procedure: The target engagement of mTOR kinase inhibitors was evaluated using an immunofluorescent cell-based assay. In this assay, inhibition of mTORC1 activity was measured by the reduction in the level of phosphorylated 4E-BP1Thr37/46 (p4E-BP1 Thr37/46), and inhibition of mTORC2 activity was measured by the reduction of phosphorylated AKTSer473 (pAKT S473).
PC3 cells (prostate tumor cell-line that contains a mutation in the tumor suppressor PTEN, that promotes the phosphorylation and activation of AKT and 4E-BP1) were used in the immunofluorescence assay. PC3 cells were seeded on 384 well plates (black clear bottom, Matrix #4332) overnight. PC3 cells were then treated with 40 μl of the serially diluted test compounds (in 5% fetal bovine serum, F12 medium containing 0.25% DMSO) for ninety minutes at 37° C. The test compound solution was removed, and the plates were washed gently two times with 25 μl phosphate buffered saline (PBS). The cells were fixed by adding 25 μl of Prefer reagent (from Anatech LTD, Cat#414, a glyoxal fixative for fixing proteins within a cell) for sixty minutes followed by three washes with PBS. 5% Goat serum in PBS/0.3% Triton was used to block non-specific binding (60 minutes).
The primary antibodies targeting pAKT S473 and p4E-BP1 Thr37/46 were diluted into PBS/0.3% Triton and incubated with the cells overnight at 4° C. The antibodies targeting pAKTS473 (Cat#4085, Cell signaling) and p4E-BP1 Thr37/46 (Cat#2855, Cell signaling) were used at a 1:100 dilution. Plates were washed three times with PBS/0.1% Tween 20 before adding the secondary antibody at a 1:200 dilution. (goat anti-rabbit containing a fluorescent label, Alexa Fluor 488, Cat#A11008, Invitrogen) in PBS/0.3% Triton for 60 minutes.
Finally, the plates were washed three times with PBS/0.1% Tween 20 and the fluorescent intensity was read using an Analyst HT from Molecular Devices. The fluorescent intensity values from the serially diluted compound treatment group were analyzed using the Xlfit 4 program ([…]) (Formula 205: Y=Bottom+(Top-Bottom)/(1+(IC50/X)^Hillslope) to generate the IC50 value. Where Top is the maximum signal without Compound (+DMSO only) and Bottom represents maximum inhibition. Y is the fluorescence at some compound concentration. The control used to determine the fluorescent intensities for 100% pAKT S473 or 100% phosphorylated p4E-BP1 Thr37/46 were measured from untreated wells that contained only DMSO, instead of test compound.

Sequence of human mTOR enzyme (P42345 1360-2549 limits assumed): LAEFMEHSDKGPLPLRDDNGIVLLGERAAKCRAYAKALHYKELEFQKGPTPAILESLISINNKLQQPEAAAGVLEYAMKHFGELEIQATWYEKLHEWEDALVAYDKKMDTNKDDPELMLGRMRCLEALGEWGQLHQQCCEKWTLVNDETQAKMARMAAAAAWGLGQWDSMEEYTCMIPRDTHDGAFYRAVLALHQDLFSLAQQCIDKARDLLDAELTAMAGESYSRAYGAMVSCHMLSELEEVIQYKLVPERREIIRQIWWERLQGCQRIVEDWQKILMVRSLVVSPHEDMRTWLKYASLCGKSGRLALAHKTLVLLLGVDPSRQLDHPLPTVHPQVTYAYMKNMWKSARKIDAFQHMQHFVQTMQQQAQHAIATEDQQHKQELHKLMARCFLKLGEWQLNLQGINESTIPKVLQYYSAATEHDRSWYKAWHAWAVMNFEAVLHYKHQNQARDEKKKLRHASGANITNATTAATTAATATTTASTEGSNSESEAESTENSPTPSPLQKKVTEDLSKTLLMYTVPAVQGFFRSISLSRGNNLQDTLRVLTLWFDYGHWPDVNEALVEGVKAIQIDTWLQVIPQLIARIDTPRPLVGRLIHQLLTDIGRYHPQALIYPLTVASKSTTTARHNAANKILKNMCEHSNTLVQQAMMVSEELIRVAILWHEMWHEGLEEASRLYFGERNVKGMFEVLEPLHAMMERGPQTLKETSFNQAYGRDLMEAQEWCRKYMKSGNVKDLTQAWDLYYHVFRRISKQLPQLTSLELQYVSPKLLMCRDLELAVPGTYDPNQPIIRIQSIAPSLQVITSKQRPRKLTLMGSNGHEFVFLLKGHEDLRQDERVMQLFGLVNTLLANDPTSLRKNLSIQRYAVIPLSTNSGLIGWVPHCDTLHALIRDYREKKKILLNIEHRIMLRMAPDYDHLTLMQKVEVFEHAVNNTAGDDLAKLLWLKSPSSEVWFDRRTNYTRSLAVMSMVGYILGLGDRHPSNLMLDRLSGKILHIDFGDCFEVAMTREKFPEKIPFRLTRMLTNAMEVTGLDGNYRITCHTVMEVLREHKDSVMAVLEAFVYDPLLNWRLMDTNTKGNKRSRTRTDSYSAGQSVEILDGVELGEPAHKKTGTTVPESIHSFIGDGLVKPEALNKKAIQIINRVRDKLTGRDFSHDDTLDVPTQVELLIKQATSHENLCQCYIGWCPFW

Structure (SMILES)	IC50 ([1]; rated class) [nM]	IC50 ([2]; rated class) [nM]	IC50 ([1]; numeric value) [nM]	IC50 ([2]; numeric value) [nM]
Nc1c(Br)c([C@H]2CC[C@]3(CC2)NC(=O)NC3=O)nc2c(-c3ccc(-c4ccccc4)nc3)cnn12 [Compound 72, 8-(7-amino-6-bromo-3-(6-phenylpyridin-3-yl)pyrazolo[1,5-a]pyrimidin-5-yl)-1,3-diazaspiro[4.5]decane-2,4-dione]	–	–	11.7	870
COC[C@]1(C(=O)O)CC[C@H](c2nc3c(-c4cnc5ccc(F)cc5c4)cnn3c(N)c2C(C)=O)CC1 [Compound 22, (1R,4R)-4-(6-acetyl-7-amino-3-(6-fluoroquinolin-3-yl)pyrazolo[1,5-a]pyrimidin-5-yl)-1-(methoxymethyl)-cyclohexane-carboxylic acid]	1 to 100	100 to 1000	–	–
COCCO[C@]1(C(=O)O)CC[C@@H](c2nc3c(-c4ccc(-c5ccccc5)nc4)cnn3c(N)c2SC)CC1 [Compound 63, (1R,4R)-4-(7-amino-6-(methylthio)-3-(6-phenylpyridin-3-yl)pyrazolo[1,5-a]pyrimidin-5-yl)-1-(2-methoxyethoxy)cyclohexanecarboxylic acid]	1 to 100	1000 to 2000	–	–
COC[C@]1(O)CC[C@@H](c2nc3c(-c4ccc(-c5ccccc5)nc4)cnn3c(N)c2Br)CC1 [Compound 164, (1S,4S)-4-(7-amino-6-bromo-3-(6-phenylpyridin-3-yl)pyrazolo[1,5-a]pyrimidin-5-yl)-1-(methoxymethyl)cyclohexanol]	1 to 100	1000 to 2000	–	–
CC(=O)c1c(C2CCC(O)(CO)CC2)nc2c(-c3ccc(-c4cnn(C)c4)nc3)cnn2c1N (stereo not shown) [Compound 145, 1-(7-amino-5-(4-hydroxy-4-(hydroxymethyl)-cyclohexyl)-3-(6-(1-methyl-1H-pyrazol-4-yl)pyridin-3-yl)pyrazolo[1,5-a]pyrimidin-6-yl)ethanone]	1 to 100	1000 to 2000	–	–
CO[C@]1(C(=O)O)CC[C@@H](c2nc3c(-c4cnc5ccc(F)cc5c4)cnn3c(N)c2C(C)=O)CC1 [Compound 39, (1R,4R)-4-(6-acetyl-7-amino-3-(6-fluoroquinolin-3-yl)pyrazolo[1,5-a]pyrimidin-5-yl)-1-methoxycyclohexane-carboxylic acid]	1 to 100	100 to 1000	–	–
Nc1c(Br)c([C@H]2CC[C@](OCCN3CCOCC3)(C(=O)O)CC2)nc2c(-c3ccc(-c4ccccc4)nc3)cnn12 [Compound 66, (1S,4S)-4-(7-amino-6-bromo-3-(6-phenylpyridin-3-yl)pyrazolo[1,5-a]pyrimidin-5-yl)-1-(2-morpholinoethoxy) cyclohexanecarboxylic acid]	1 to 100	1000 to 2000	–	–
CC(=O)c1c(C2CCC(O)(CO)CC2)nc2c(-c3cnc4ccc(F)cc4c3)cnn2c1N (stereo not shown) [Compound 142, 1-(7-amino-3-(6-fluoroquinolin-3-yl)-5-(4-hydroxy-4-(hydroxymethyl)-cyclohexyl)-pyrazolo-[1,5-a]pyrimidin-6-yl)ethanone]	1 to 100	1 to 100	–	–
CC(=O)c1c(N)n2ncc(-c3ccc(-c4ccccc4)nc3)c2nc1[C@H]1CC[C@](O)(CCO)CC1 [Compound 159, 1-(7-amino-5-((1S,4S)-4-hydroxy-4-(2-hydroxyethyl)-cyclohexyl)-3-(6-phenylpyridin-3-yl)pyrazolo[1,5-a]pyrimidin-6-yl)ethanone]	1 to 100	1 to 100	–	–
COCCOC1(CO)CCC(c2nc3c(-c4ccc(-c5ccccc5)nc4)cnn3c(N)c2C(C)=O)CC1 (stereo not shown) [Compound 86, 1-(7-amino-5-(4-(hydroxymethyl)-4-(2-methoxyethoxy)-cyclohexyl)-3-(6-phenylpyridin-3-yl)pyrazolo[1,5-a]pyrimidin-6-yl)ethanone]	1 to 100	100 to 1000	–	–
CO[C@]1(C(=O)O)CC[C@H](c2nc3c(-c4cnc5ccc(F)cc5c4)cnn3c(N)c2Br)CC1 [Compound 32, (1S,4S)-4-(7-amino-6-bromo-3-(6-fluoroquinolin-3-yl)pyrazolo[1,5-a]pyrimidin-5-yl)-1-methoxycyclohexane-carboxylic acid]	1 to 100	100 to 1000	–	–

Continued, values first:

IC50 ([1]; rated class) [nM]	IC50 ([2]; rated class) [nM]	IC50 ([1]; numeric value) [nM]	IC50 ([2]; numeric value) [nM]	Structure (SMILES)
1 to 100	100 to 1000	–	–	CO[C@]1(C(=O)O)CC[C@H](c2nc3c(-c4cnc5ccc(F)cc5c4)cnn3c(N)c2C(C)=O)CC1 [Compound 38, (1S,4S)-4-(6-acetyl-7-amino-3-(6-fluoroquinolin-3-yl)pyrazolo[1,5-a]pyrimidin-5-yl)-1-methoxycyclohexane-carboxylic acid]
1 to 100	1000 to 2000	–	–	COC[C@]1(C(=O)O)CC[C@H](c2nc3c(-c4cnc5ccc(F)cc5c4)cnn3c(N)c2Br)CC1 [Compound 7, (1R,4R)-4-(7-amino-6-bromo-3-(6-fluoroquinolin-3-yl)pyrazolo[1,5-a]pyrimidin-5-yl)-1-(methoxymethyl)-cyclohexane-carboxylic acid]
1 to 100	1000 to 2000	–	–	CO[C@]1(C(=O)O)CC[C@@H](c2nc3c(-c4cnc5ccc(F)cc5c4)cnn3c(N)c2Br)CC1 [Compound 33, (1R,4R)-4-(7-amino-6-bromo-3-(6-fluoroquinolin-3-yl)pyrazolo[1,5-a]pyrimidin-5-yl)-1-methoxycyclohexane-carboxylic acid]
1 to 100	5000 to 15000	–	–	COCCO[C@]1(C(=O)O)CC[C@H](c2nc3c(-c4ccc(-c5ccccc5)nc4)cnn3c(N)c2C(C)=O)CC1 [Compound 56, (1S,4S)-4-(6-acetyl-7-amino-3-(6-phenylpyridin-3-yl)pyrazolo[1,5-a]pyrimidin-5-yl)-1-(2-methoxyethoxy) cyclohexanecarboxylic acid]
1 to 100	1000 to 2000	–	–	COCC1(CO)CCC(c2nc3c(-c4ccc(-c5ccccc5)nc4)cnn3c(N)c2C(C)=O)CC1 (stereo not shown) [Compound 170, 1-(7-amino-5-(4-(hydroxymethyl)-4-(methoxymethyl)-cyclohexyl)-3-(6-phenylpyridin-3-yl)pyrazolo[1,5-a]pyrimidin-6-yl)ethanone]
1 to 100	100 to 1000	–	–	COC[C@]1(C(=O)O)CC[C@@H](c2nc3c(-c4cnn(-c5ccccc5)c4)cnn3c(N)c2C(C)=O)CC1 [Compound 21, (1S,4S)-4-(6-acetyl-7-amino-3-(1-phenyl-1H-pyrazol-4-yl)pyrazolo[1,5-a]pyrimidin-5-yl)-1-(methoxymethyl)-cyclohexane-carboxylic acid]
1 to 100	100 to 1000	–	–	Nc1c(Br)c(C2CCC(O)(CO)CC2)nc2c(-c3cnn(-c4ccccc4)c3)cnn12 (stereo not shown) [Compound 135, 4-(7-amino-6-bromo-3-(1-phenyl-1H-pyrazol-4-yl)pyrazolo[1,5-a]pyrimidin-5-yl)-1-(hydroxymethyl)-cyclohexanol]
1 to 100	100 to 1000	–	–	CO[C@]1(CO)CC[C@H](c2nc3c(-c4ccc(-c5ccccc5)nc4)cnn3c(N)c2C(C)=O)CC1 [Compound 85, 1-(7-amino-5-((1S,4S)-4-(hydroxymethyl)-4-methoxycyclohexyl)-3-(6-phenylpyridin-3-yl)pyrazolo[1,5-a]pyrimidin-6-yl)ethanone]
1 to 100	100 to 1000	–	–	COCC1(C(=O)O)CCC(c2nc3c(-c4ccc(-c5ccccc5)nc4)cnn3c(N)c2Br)CC1 (stereo not shown) [Compound 5, 4-(7-amino-6-bromo-3-(6-phenylpyridin-3-yl)pyrazolo[1,5-a]pyrimidin-5-yl)-1-(methoxymethyl)-cyclohexane-carboxylic acid]
1 to 100	2000 to 5000	–	–	COCCOC[C@]1(C(=O)O)CC[C@@H](c2nc3c(-c4ccc(-c5ccccc5)nc4)cnn3c(N)c2Br)CC1 [Compound 12, (1S,4S)-4-(7-amino-6-bromo-3-(6-phenylpyridin-3-yl)pyrazolo[1,5-a]pyrimidin-5-yl)-1-((2-methoxyethoxy)methyl)cyclohexane-carboxylic acid]
1 to 100	2000 to 5000	–	–	COCCOC[C@]1(CO)CC[C@@H](c2nc3c(-c4ccc(-c5ccccc5)nc4)cnn3c(N)c2Br)CC1 [Compound 169, ((1R,4R)-4-(7-amino-6-bromo-3-(6-phenylpyridin-3-yl)pyrazolo[1,5-a]pyrimidin-5-yl)-1-((2-methoxyethoxy)-methyl)cyclohexyl)-methanol]
1 to 100	2000 to 5000	–	–	COc1ccc(-c2ccc(-c3cnn4c(N)c(C(C)=O)c(C5CCC(CO)(OC)CC5)nc34)cn2)cn1 (stereo not shown) [Compound 171, 1-(7-amino-5-(4-(hydroxymethyl)-4-methoxycyclohexyl)-3-(6′-methoxy-2,3′-bipyridin-5-yl)pyrazolo[1,5-a]pyrimidin-6-yl)ethanone]
